This is an account of results in patent publication US20260014129A1, “MITOCHONDRIAL PYRUVATE METABOLISM INHIBITORS FOR TREATING CHRONIC MYELOID LEUKEMIA” (The University Court of the University of Glasgow, priority 2022, published 2026).

For series [1], the system named is CML CD34+ cells. Nature of the series: LC-MS steady state metabolite analysis of primary CML CD34+ cells. It counts as cell-based, human. How it is done:
(§1) Cells were counted using a CASY counter with the following parameters: E-cur 7.5-22.5, N-cur 5.25-20.5. Cell number was multiplied by peak volume (size) and this number was used to calculate volume of solvent to extract in. Cells were pelleted by centrifugation (400 RCF, 10 minutes, room temperature) at which medium was removed for YSI analysis. Cells were then washed twice with ice cold PBS (Calcium and Magnesium free: Thermo Fisher Scientific) with pulse centrifugation (12,000RCF, 15 seconds, 4° C.) used between and after washes. Cells were then extracted in LC-grade ACN:MeOH:H2O solvent (−20° C., 5:3:2) by disrupting the pellet by pipetting followed by a 5 second vortex. Finally, debris was pelleted by centrifugation (16,000RCF, 10 minutes, 4° C.), supernatant transferred to LC-MS glass vials that were stored at −80° C. until analysis.
The LC system composed of a ZIC-pHILIC column (SeQuant, 150×2.1 mm, 5 μm, Merck KGaA) with a ZIC-pHILIC guard column (SeQuant, 20×2.1 mm) with an UltiMate 3000 HPLC system (Thermo Fisher Scientific). The aqueous mobile-phase solvent was 20 mM ammonium carbonate-0.1% ammonium hydroxide solution and with acetonitrile being used for organic mobile phase. A linear biphasic LC gradient was conducted from 80% organic to 80% aqueous for 15 min for a total run time of 22 min. The column temperature was maintained at 45° C. flow rate set to 200 μL/min.
The MS used in this study was a qExactive Plus Orbitrap Mass Spectrometer (Thermo Fisher Scientific) operating in polarity switching mode. The MS set up was calibrated using a custom CALMIX in both ionization modes before analysis and a tune file targeted towards the lower m/z range was used. Full scan (MS1) data was acquired in both ionization modes in profile mode at 70,000 resolution (at m/z range 75-1000), an automatic gain control (AGC) target of 1×10^6 (max fill time of 250 ms), with spray voltages +4.5 kV (capillary +50V, tube: […], skimmer: +20V) and −3.5 kV (capillary −50V, tube: […], skimmer: −20V) and s-lens RF level of 50 for the front optics. The capillary temperature 375° C., probe temperature 50′C, sheath gas flow rate 25, auxiliary gas flow rate 15a.u. 15 and sweep gas flow rate of 1a.u.
(§2) The peak areas of different metabolites were determined using Tracefinder 4.1 software (Thermo Fisher Scientific). Metabolites were identified by accurate mass of the singly charged ion and by known retention times on the pHILIC column. A commercially available standard compound mix (Merck: MSMLS-1EA) had been analysed previously on our LC-MS system to determine accurate ion masses and retention times. The 13C labelling was determined by quantifying peak areas for the accurate mass of all isotopologues of each metabolite.
Two independent experiments were performed, data normalised to first sample in each experiment, processed through Autoplotter (56), samples as experiments, and normalised data as replicates. […] For MSDC-0160 treated samples a batch correction (to non-drug control) was used prior to analysis using Metabonalyst. Volcano plots were generated, and an FDR adjusted t-test threshold 0.1 was utilised. Note both fold changes and p-values are log transformed. Top-25 scoring metabolites are included in heatmap.

Series [2] in a line: Body weight of xenografted NRG-W41 mice during treatment. The following applies: 4 weeks. As for the experimental part: For in vivo engraftment, 1 million CML CD34^+ cells, were transplanted via tail vein into sublethally irradiated (2.5Gy) female NRG-W41 (NOD.Cg-Rag1^tm1MomKit^W-41JIl2rg^tm1Wjl)) mice aged 8-10 weeks. Mice were housed under conditions of alternating 12 hours light and 12 hours darkness, at 20-24° C., 45-65% humidity, with feeding (LBS biotech: SDS Cat #SDS801730) and water ad libitum.
For treatment with imatinib plus MSDC-0160, eight weeks following transplant, drug treatment was started with both imatinib (LC Laboratories, Cat #1-5508) dosed at 100 mg/kg/day (50 mg per kg body weight BID) oral gavage and MSDC-0160 (30 mg/kg; oral gavage once daily). Treatment was given for 4 weeks.

The next series relates to normal CD34+ cells. The series is described as follows: Colony forming cell (CFC) assay of normal CD34+ cells. The format is cell-based, human. The following applies: 72 hours, n=3 healthy donors.
Series [3] has as its system CML CD34+ cells. Nature of the series: Colony forming cell (CFC) assay of CML CD34+ cells. The format is cell-based, human. The following applies: 72 hours, n=6 CML patients.
A further series concerns T1, FBS (Bos taurus).
T1 construct: host or cells: FBS in culture medium
Conditions: as previously reported (ref 44); cited from earlier work.

Series [4] has as its system CML CD34+ cells. Nature of the series: 13C stable isotope tracing (glucose, glutamine, palmitate) in primary CML CD34+ cells. It counts as cell-based, human. How it is done: For conjugation of palmitate, a 20 mM stock was made in 100% EtOH. This was incubated on a shaking heater, 60° C. until the solution clarified. The palmitate was then added to 10% BSA (ultra-fatty acid free in EBSS, Roche, 03117057001) to give a palmitate:BSA ratio of 1:3 BSA. This solution was left for 15 min in water bath (37° C.), and then added to final concentration in complete medium. For cell line experiments, the medium was RPMI with 10% dialysed FBS and 1% penicillin/streptomycin. For tracing experiments 11 mM ^13C6 glucose was added to glucose-free RPMI.
as §1, §2
Biological and technical replicates were processed through Autoplotter (56) and natural abundance was corrected for. Fraction of enrichment was calculated as m+2 and above. For CML samples treated with or without imatinib, multiple paired T-tests were conducted on Log 10 transformed values in Graphpad Prism. The correction for multiple comparisons was the two-stage step-up method of Benjamini, Krieger and Yekutieli with an FDR (Q) value of 10%. For volcano plots Log 10 FC vs Log 10 (q value) are plotted with q values>5% in red and >10% in blue. For normal vs CML comparisons, the process was the same with the exception that unpaired t-tests were used. For PC activity in normal vs CML, this is denoted by fraction m+3. For imatinib vs untreated we look at relative activity to PDH. IE., the m+3/m+2 ratio and conducted multiple t-tests with correction for multiple comparisons being the two-stage step-up method of Benjamini, Krieger and Yekutieli with an FDR (Q) value of 10%.

Where [5] appears, read: imatinib 2 μM, 48 hours, CML CD34+ cells.

T1 sequence (P02769 25-607): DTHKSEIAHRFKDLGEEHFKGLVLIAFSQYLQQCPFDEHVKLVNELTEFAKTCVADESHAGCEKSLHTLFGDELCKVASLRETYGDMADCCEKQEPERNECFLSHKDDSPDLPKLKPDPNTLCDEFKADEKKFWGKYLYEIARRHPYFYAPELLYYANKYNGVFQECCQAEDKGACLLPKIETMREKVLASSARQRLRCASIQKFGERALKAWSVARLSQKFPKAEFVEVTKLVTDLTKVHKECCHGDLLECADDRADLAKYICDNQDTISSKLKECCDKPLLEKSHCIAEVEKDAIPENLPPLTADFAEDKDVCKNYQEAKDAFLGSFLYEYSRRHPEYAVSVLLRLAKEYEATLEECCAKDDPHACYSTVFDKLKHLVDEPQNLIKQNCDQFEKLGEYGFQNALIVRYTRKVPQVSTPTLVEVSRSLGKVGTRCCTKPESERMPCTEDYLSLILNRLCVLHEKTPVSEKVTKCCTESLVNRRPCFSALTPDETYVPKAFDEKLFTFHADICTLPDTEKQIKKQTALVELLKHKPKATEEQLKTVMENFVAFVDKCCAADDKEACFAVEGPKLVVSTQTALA

Consider `CCc1ccc(C(=O)COc2ccc(CC3SC(=O)NC3=O)cc2)nc1` (stereo not drawn) [MSDC-0160], for which the “dose at which steady state analysis showed significant metabolic changes” value in the series on CML CD34+ cells [1] (primary CML CD34+ samples, 24 hours, highest dose) is 100 µM. Moreover, in series [2] (imatinib 50 mg/kg BID or MSDC-0160 30 mg/kg/day, oral gavage), the “tolerability (body weight throughout the study), single agent arms” value was “well tolerated”. In addition, the “tolerability (body weight throughout the study), combination arm” value in series [2] (imatinib 50 mg/kg BID plus MSDC-0160 30 mg/kg/day) is “well tolerated”. Moreover, the “CFC potential of normal CD34+ cells, single agent” value in the series on normal CD34+ cells is “no significant effect”. Moreover, the “CFC potential of normal CD34+ cells, combination treatment” value with normal CD34+ cells (MSDC-0160 plus 2 μM imatinib) is given as “no significant effect”. Further, the “number of colonies, MSDC-0160 added to imatinib” value in the series on CML CD34+ cells [3] (20 or 50 μM MSDC-0160 plus 2 μM imatinib) was “further concentration-dependent reduction”. Besides, the “binding to FBS” value in the series on FBS (Bos taurus) was “high FBS binding”. For the same compound, the “m+2 and m+3 fractions of TCA cycle metabolites” value with CML CD34+ cells [4] (20 or 100 μM MSDC-0160, primary CML CD34+ samples) is “significant decreases to both m+2 and m+3 fractions”. Besides, the “inhibition of glucose oxidation in primitive CD34+CD38- population” value with CML CD34+ cells [4] (compared with CD34+CD38+ progenitor population, data not shown) is “to a similar extent as in the CD34^+CD38^+ progenitor population”. Also, the “inhibition of labelling in stromal co-culture” value in the series with CML CD34+ cells [4] (presence of stromal cells, 24-hour culture, 50 uM) is recorded as “also achieved in the presence of stromal cells”. Further, the “total glucose contribution and m+3 contribution to TCA cycle metabolites” value in the series with CML CD34+ cells [4] (primary CML CD34+ samples, 24 hours) is “reduced both total glucose contribution and m+3 contribution to TCA cycle metabolites in a dose-dependent manner”. In addition, the “dose required to fully inhibit labelling” value in the series on CML CD34+ cells [4] (primary CML CD34+ samples, medium with Albumax II) was found to be 100 µM.
Turning to `Cc1ccc(NC(=O)c2ccc(CN3CCN(C)CC3)cc2)cc1Nc1nccc(-c2cccnc2)n1` [imatinib], in the series with CML CD34+ cells [1] (imatinib 2 μM, 48 hours), the ATP levels result is given as “trend towards reduced ATP levels”; the “oxidative stress, cellular redox and TCA cycle metabolites, steady state” value is listed as “decreases”. In the series on CML CD34+ cells [1] (imatinib 2 μM, 48 hours, n=4 patient samples), the AMP/ATP ratio result is listed as “significant increase in AMP/ATP ratio”. For the same compound, the “CFC potential of normal CD34+ cells, single agent” value in the series with normal CD34+ cells is “no significant effect”. In the series with CML CD34+ cells [3] (2 μM imatinib alone), the number of colonies entry was “reduced the number of colonies”. For the same compound, in the series with CML CD34+ cells [4] (imatinib 2 μM, 24 hours, n=3), the “glucose incorporation (13C-glucose labelling) in sorted CML CD34+CD38- cells” value is “statistically significant reduction”. Further, the “relative PC/PDH activity in CML CD34+CD38- cells” value in the series on CML CD34+ cells [4] (imatinib 2 μM, 24 hours, n=3, p-value=0.0870) is listed as “increased in all three patient samples”. For the same compound, in the series with CML CD34+ cells [4] (setting [5]), the “PC relative to PDH contribution of glucose (m+3/m+2 ratio in malate, citrate, aspartate)” value is listed as “increased”; the “glucose contribution to metabolite fraction labelling (13C6 glucose)” value is recorded as “reduced”; the “glutamine contribution to metabolite fraction labelling (13C5 glutamine)” value is “reduced”; the “palmitate contribution to metabolite fraction labelling (13C16 palmitate)” value is given as “not significantly different”. Also, in the series on CML CD34+ cells [4] (imatinib, primary CML CD34+ samples, not shown), the “labelled fractions of TCA cycle metabolites affected” value is on record as “only affected m+2 fractions”.
